Laboratory results taken from patent US20240246916A1, “7-NITRO-8-HYDROXYQUINOLINE DERIVATIVES, PREPARATION METHOD THEREFORE AND MEDICAL USE THEREOF” (Jiangsu Yahong Meditech Co., Ltd., priority 2021, published 2024).
Converted amounts (≈) assume the structure as drawn.

What was measured:
Format in all cases: cell-based
[1] = tested on: Acinetobacter baumannii (carbapenem-resistant clinical isolates; ATCC19606); assay: MIC by micro broth dilution (CLSI), Acinetobacter baumannii; conditions: Acinetobacter baumannii; for MIC50 / MIC90: ATCC19606, Clinical strain; for MIC50: read-out: MIC50; for MIC90: read-out: MIC90; for MIC: Standard strain ATCC19606, read-out: MIC
Text: (§1) The test bacteria were one strain of clinically isolated carbapenem-resistant Escherichia coli, two strains of carbapenem-resistant Acinetobacter baumannii, two strains of methicillin-resistant Staphylococcus aureus, two strains of sensitive Staphylococcus aureus, and 7 strains of Klebsiella pneumoniae. Duplicate strains isolated from the same patient were eliminated. There were also […] quality control strains Escherichia coli ATCC25922, Acinetobacter baumannii ATCC19606, Staphylococcus aureus ATCC29213, Klebsiella pneumoniae ATCC BAA-1705, ATCC 43816, ATCC BAA-2472, ATCC-BAA-1898, ATCC-BAA-1899, NCTC 13440 and ATCC-BAA-2470. There were 24 strains in total.
(§2) According to the recommendations of relevant documents of the American Clinical and Laboratory Standards Institute (CLSI), the micro broth dilution method was used to determine the MIC of the compounds of the present invention against clinically isolated strains. • 3.1 Formulation of antibacterial drug: All the compounds of the present invention were dissolved in DMSO. The drug concentration range was 128 mg/L to 0.06 mg/L. • 3.2 Culture medium: The drug susceptibility test used cation adjusted Mueller-Hinton broth (CAMHB). • 3.3 Amount of inoculum: The test bacteria cultured overnight were adjusted to 0.5 McFarland turbidity by the direct colony suspension method, and diluted 100 folds, the final inoculum amount was 10^5 CFU/mL. • 3.4 Culture conditions: The test bacteria were cultured at 35±2° C. for 20 hours in air.
(§3) The drug susceptibility test results were interpretated by reference to CLSI 2019 M100 29th edition criteria.
(§4) The quality control strains of the drug susceptibility test were Escherichia coli ATCC 25922, Acinetobacter baumannii ATCC 19606, Staphylococcus aureus ATCC 29213, Klebsiella pneumoniae ATCC BAA-1705, ATCC 43816, ATCC BAA-2472, ATCC-BAA-1898, ATCC-BAA-1899, NCTC 13440 and ATCC-BAA-2470.
(§5) The results of drug susceptibility test were statistically analyzed by WHONET software (version 5.6).

[2] = tested on: Staphylococcus aureus (methicillin-resistant and sensitive clinical isolates; ATCC29213); assay: MIC by micro broth dilution (CLSI), Staphylococcus aureus; conditions: for MIC50 / MIC90: Clinical strain; for MIC50: read-out: MIC50; for MIC90: read-out: MIC90; for MIC: Standard strain ATCC29213, read-out: MIC
Text: as §1, §2, §3, §4, §5

[3] = tested on: Escherichia coli (carbapenem-resistant clinical isolate; ATCC25922); assay: MIC by micro broth dilution (CLSI), Escherichia coli; conditions: Escherichia coli; for MIC50 / MIC90: ATCC25922, Clinical strain; for MIC50: read-out: MIC50; for MIC90: read-out: MIC90; for MIC: Standard strain ATCC25922, read-out: MIC
Text: as §1, §2, §3, §4, §5

MIC50 [1] [µg/mL]	MIC90 [1] [µg/mL]	MIC50 [2] [µg/mL]	MIC90 [2] [µg/mL]	MIC [2] [µg/mL]	MIC50 [3] [µg/mL]	MIC90 [3] [µg/mL]	MIC [3] [µg/mL]	MIC [1] [µg/mL]	SMILES
32 (≈ 157 µM)	32 (≈ 157 µM)	–	–	–	–	–	–	–	Cc1cc([N+](=O)[O-])c(O)c2ncccc12 [Example 4, 5-Methyl-7-nitroquinolin-8-ol]
32 (≈ 126 µM)	64 (≈ 252 µM)	8 (≈ 31.5 µM)	16 (≈ 63.1 µM)	16 (≈ 63.1 µM)	64 (≈ 252 µM)	128 (≈ 505 µM)	64 (≈ 252 µM)	64 (≈ 252 µM)	CNc1c([N+](=O)[O-])c(O)c2ncccc2c1Cl [Example 7, 5-Chloro-6-(methylamino)-7-nitroquinolin-8-ol]
16 (≈ 62.5 µM)	32 (≈ 125 µM)	8 (≈ 31.2 µM)	8 (≈ 31.2 µM)	8 (≈ 31.2 µM)	16 (≈ 62.5 µM)	128 (≈ 500 µM)	16 (≈ 62.5 µM)	8 (≈ 31.2 µM)	O=[N+]([O-])c1ccc2c(OC(F)F)ccnc2c1O [Example 77, 4-(difluoromethoxy)-7-nitroquinolin-8-ol]
> 128	> 128	128 (≈ 598 µM)	128 (≈ 598 µM)	128 (≈ 598 µM)	> 128	> 128	> 128	> 128	C#Cc1ccnc2c(O)c([N+](=O)[O-])ccc12 [Example 80, 4-ethynyl-7-nitroquinolin-8-ol]
16 (≈ 66.6 µM)	32 (≈ 133 µM)	8 (≈ 33.3 µM)	16 (≈ 66.6 µM)	16 (≈ 66.6 µM)	32 (≈ 133 µM)	128 (≈ 533 µM)	16 (≈ 66.6 µM)	16 (≈ 66.6 µM)	O=[N+]([O-])c1ccc2c(C(F)F)ccnc2c1O [Example 81, 4-(difluoromethyl)-7-nitroquinolin-8-ol]
> 128	> 128	1 (≈ 3.33 µM)	1 (≈ 3.33 µM)	1 (≈ 3.33 µM)	> 128	> 128	> 128	128 (≈ 426 µM)	O=[N+]([O-])c1ccc2c(Cl)c(-c3ccccc3)cnc2c1O [Example 82, 4-chloro-7-nitro-3-phenylquinolin-8-ol]
32 (≈ 134 µM)	64 (≈ 268 µM)	4 (≈ 16.8 µM)	4 (≈ 16.8 µM)	4 (≈ 16.8 µM)	128 (≈ 536 µM)	128 (≈ 536 µM)	32 (≈ 134 µM)	16 (≈ 67 µM)	Cc1cnc2c(O)c([N+](=O)[O-])cc(Cl)c2c1 [Example 83, 5-chloro-3-methyl-7-nitroquinolin-8-ol]
64 (≈ 262 µM)	128 (≈ 524 µM)	4 (≈ 16.4 µM)	64 (≈ 262 µM)	4 (≈ 16.4 µM)	> 128	> 128	64 (≈ 262 µM)	64 (≈ 262 µM)	Cc1cnc2c(O)c([N+](=O)[O-])cc(C3CC3)c2c1 [Example 84, 5-cyclopropyl-3-methyl-7-nitroquinolin-8-ol]
32 (≈ 111 µM)	64 (≈ 223 µM)	16 (≈ 55.7 µM)	64 (≈ 223 µM)	64 (≈ 223 µM)	64 (≈ 223 µM)	64 (≈ 223 µM)	64 (≈ 223 µM)	32 (≈ 111 µM)	O=[N+]([O-])c1ccc2c(CN3CCCCC3)ccnc2c1O [Example 85, 7-nitro-4-(piperidin-1-yl-methyl)quinolin-8-ol]
16 (≈ 72 µM)	32 (≈ 144 µM)	8 (≈ 36 µM)	> 128	8 (≈ 36 µM)	32 (≈ 144 µM)	32 (≈ 144 µM)	16 (≈ 72 µM)	16 (≈ 72 µM)	Cc1cnc2c(O)c([N+](=O)[O-])cc(F)c2c1 [Example 86, 5-fluoro-3-methyl-7-nitroquinolin-8-ol]
> 128	> 128	128	> 128	128	> 128	> 128	128	128	O=[N+]([O-])c1cc(CN2CCOCC2)c2cccnc2c1O [Example 87, 5-(morpholinomethyl)-7-nitroquinolin-8-ol acetate]
> 128	> 128	4 (≈ 15.3 µM)	16 (≈ 61 µM)	16 (≈ 61 µM)	> 128	> 128	> 128	128 (≈ 488 µM)	CCOC(=O)c1cnc2c(O)c([N+](=O)[O-])ccc2c1 [Example 88, ethyl 8-hydroxy-7-nitroquinoline-3-carboxylate]
128 (≈ 442 µM)	128 (≈ 442 µM)	64 (≈ 221 µM)	64 (≈ 221 µM)	64 (≈ 221 µM)	> 128	> 128	> 128	128 (≈ 442 µM)	O=[N+]([O-])c1ccc2c(CN3CCOCC3)ccnc2c1O [Example 89, 4-(morpholinomethyl)-7-nitroquinolin-8-ol]
32	128	32	32	32	64	> 128	64	32	CCN(CC)Cc1cnc2c(O)c([N+](=O)[O-])cc(Cl)c2c1.O=C(O)C(F)(F)F.O=C(O)C(F)(F)F [Example 90, 5-chloro-3-((diethylamino)methyl)-7-nitroquinolin-8-ol ditrifluoroacetate]
> 128	> 128	> 128	> 128	> 128	> 128	> 128	128	128	O=[N+]([O-])c1cc(CN2CCCCC2)c2cccnc2c1O [Example 91, 7-nitro-5-(piperidin-1-ylmethyl)quinolin-8-ol acetate]
32 (≈ 99.5 µM)	128 (≈ 398 µM)	16 (≈ 49.7 µM)	16 (≈ 49.7 µM)	16 (≈ 49.7 µM)	> 128	> 128	64 (≈ 199 µM)	32 (≈ 99.5 µM)	O=[N+]([O-])c1cc(Cl)c2cc(CN3CCCCC3)cnc2c1O [Example 92, 5-chloro-7-nitro-3-(piperidin-1-ylmethyl)quinolin-8-ol]
> 128	> 128	> 128	> 128	> 128	> 128	> 128	> 128	> 128	O=[N+]([O-])c1cc(CN2CCCC2)c2cccnc2c1O [Example 93, 7-nitro-5-(pyrrolidin-1-ylmethyl)quinolin-8-ol acetate]
64 (≈ 232 µM)	> 128	> 128	> 128	> 128	128 (≈ 465 µM)	128 (≈ 465 µM)	64 (≈ 232 µM)	128 (≈ 465 µM)	CCN(CC)Cc1cc([N+](=O)[O-])c(O)c2ncccc12 [Example 94, 5-((diethylamino)methyl)-7-nitroquinolin-8-ol]
64 (≈ 223 µM)	64 (≈ 223 µM)	64 (≈ 223 µM)	64 (≈ 223 µM)	64 (≈ 223 µM)	64 (≈ 223 µM)	64 (≈ 223 µM)	64 (≈ 223 µM)	32 (≈ 111 µM)	O=[N+]([O-])c1ccc2cc(CN3CCCCC3)cnc2c1O [Example 95, 7-nitro-3-(piperidin-1-ylmethyl)quinolin-8-ol]
–	–	128 (≈ 468 µM)	128 (≈ 468 µM)	128 (≈ 468 µM)	128 (≈ 468 µM)	> 128	128 (≈ 468 µM)	–	O=[N+]([O-])c1ccc2c(C3CCNCC3)ccnc2c1O [Example 105, 7-nitro-4-(piperidin-4-yl)quinolin-8-ol]
–	–	16 (≈ 76.9 µM)	16 (≈ 76.9 µM)	16 (≈ 76.9 µM)	8 (≈ 38.4 µM)	128 (≈ 615 µM)	16 (≈ 76.9 µM)	–	O=[N+]([O-])c1cc(F)c2cccnc2c1O [Example 106, 5-fluoro-7-nitroquinolin-8-ol]
–	–	4 (≈ 16.8 µM)	8 (≈ 33.5 µM)	8 (≈ 33.5 µM)	64 (≈ 268 µM)	128 (≈ 536 µM)	32 (≈ 134 µM)	–	Cc1c([N+](=O)[O-])c(O)c2ncccc2c1Cl [Example 107, 5-chloro-6-methyl-7-nitroquinolin-8-ol]
–	–	> 128	> 128	128	> 128	> 128	> 128	–	O=C(O)C(F)(F)F.O=[N+]([O-])c1cc(C(F)F)c2cccnc2c1O [Example 108, 5-(difluoromethyl)-7-nitroquinolin-8-ol trifluoroacetate]
–	–	128 (≈ 581 µM)	128 (≈ 581 µM)	64 (≈ 291 µM)	32 (≈ 145 µM)	64 (≈ 291 µM)	64 (≈ 291 µM)	–	O=[N+]([O-])c1cc(CO)c2cccnc2c1O [Example 109, 5-(hydroxymethyl)-7-nitroquinolin-8-ol]
